The assay has as its target Human Factor D (Homo sapiens (Human), UniProt P00746). The assay is described as follows: Human Factor D assay. It is filed as biochemical. On the procedure:
Example 8. Human Factor D Assay
Human Factor D (purified from human serum, Complement Technology, Inc.) at 80 nM final concentration is incubated with test compound at various concentrations for 5 minutes at room temperature in 50 mM Tris, 1M NaCl, pH 7.5. A synthetic substrate Z-L-Lys-SBzl and DTNB (Ellman's reagent) are added to final concentrations of 100 μM each. Absorbance at 405 nm (A405) is recorded at 30 second intervals for 30 minutes using a microplate spectrophotometer. IC50 values are calculated by nonlinear regression of complement Factor D reaction rates as a function of test compound concentration.

[1] abbreviates: Factor D 80 nM, substrate Z-L-Lys-SBzl, Table 2 (headed TABLE 1), read-out: IC50.
Setting [2] is: Factor D 80 nM, substrate Z-L-Lys-SBzl, Table 1, read-out: IC50.

Like-named read-outs stand apart in the source and are kept apart here. Some results are limits rather than exact numbers.

Chain of Human Factor D (P00746 26-253): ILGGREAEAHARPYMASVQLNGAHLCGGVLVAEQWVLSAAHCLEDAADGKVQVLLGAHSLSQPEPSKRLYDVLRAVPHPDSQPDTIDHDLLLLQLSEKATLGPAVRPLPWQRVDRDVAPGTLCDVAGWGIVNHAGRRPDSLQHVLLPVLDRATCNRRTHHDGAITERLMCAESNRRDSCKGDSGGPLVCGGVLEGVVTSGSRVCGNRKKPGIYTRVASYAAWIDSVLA

Take `CC(=O)c1nn(CC(=O)N2C[C@H](F)C[C@H]2C(=O)Nc2cccc(Br)n2)c2cc(OCC(=O)N(C)C)c(-c3cnc(C)nc3)cc12` [Compound 26, (2S,4R)-1-(2-(3-acetyl-6-(2-(dimethylamino)-2-oxoethoxy)-5-(2-methylpyrimidin-5-yl)-1H-indazol-1-yl)acetyl)-N-(6-bromopyridin-2-yl)-4-fluoropyrrolidine-2-carboxamide]: the concentration for half-maximal inhibition (IC50) (in general, the concentration at which inhibition is half-maximal) under setting [1] is less than 1000 nM.
Turning to `COCOCCOc1cc2c(cc1-c1cnc(C)nc1)c(C(C)=O)nn2CC(=O)N1C[C@H](F)C[C@H]1C(=O)Nc1cccc(Br)n1` [Compound 39, (2S,4R)-1-(2-(3-acetyl-6-(2-(methoxymethoxy)ethoxy)-5-(2-methylpyrimidin-5-yl)-1H-indazol-1-yl)acetyl)-N-(6-bromopyridin-2-yl)-4-fluoropyrrolidine-2-carboxamide], the IC50 under setting [1] was less than 1000 nM.
As for `CC(=O)c1cn(CC(=O)N2C[C@H](F)C[C@H]2C(=O)Nc2cccc(Br)n2)c2cc(OCP(=O)(O)O)c(-c3cnc(C)nc3)cc12` [Compound 13, (3-acetyl-1-(2-((2S,4R)-2-(6-bromopyridin-2-ylcarbamoyl)-4-fluoropyrrolidin-1-yl)-2-oxoethyl)-5-(2-methylpyrimidin-5-yl)-1H-indol-6-yloxy)methylphos-phonic acid], the 50% inhibitory concentration (IC50) under setting [2] is less than 1000 nM.
As for `CC(=O)c1cn(CC(=O)N2C[C@H](F)C[C@H]2C(=O)Nc2cccc(Br)n2)c2ccc(S(C)(=N)=O)cc12` (stereo partly drawn) [Compound 48, (2S,4R)-1-(2-(3-acetyl-5-(S-methylsulfonimidoyl)-1H-indol-1-yl)acetyl)-N-(6-bromopyridin-2-yl)-4-fluoropyrrolidine-2-carboxamide], the IC50 under setting [1] was less than 1000 nM.
For `CC(=O)c1nn(CC(=O)N2C[C@H](F)C[C@H]2C(=O)Nc2cccc(Br)n2)c2ccc(-c3cnc(S(C)(=N)=O)nc3)cc12` (stereo partly drawn) [Compound 46, (2S,4R)-1-(2-(3-acetyl-5-(2-(S-methylsulfonimidoyl)pyrimidin-5-yl)-1H-indazol-1-yl)acetyl)-N-(6-bromopyridin-2-yl)-4-fluoropyrrolidine-2-carboxamide], the IC50 under setting [1] is less than 1000 nM.
Consider `CC(=O)c1nn(CC(=O)N2C[C@H](F)C[C@H]2C(=O)Nc2cccc(Br)n2)c2cc(OCCOCc3ccccc3)c(-c3cnc(C)nc3)cc12` [Compound 33, (2S,4R)-1-(2-(3-acetyl-6-(2-(benzyloxy)ethoxy)-5-(2-methylpyrimidin-5-yl)-1H-indazol-1-yl)acetyl)-N-(6-bromopyridin-2-yl)-4-fluoropyrrolidine-2-carboxamide], for which the IC50 under setting [1] was less than 1000 nM.
Same read-out and setting: then `CC(=O)c1cn(CC(=O)N2C[C@H](F)C[C@H]2C(=O)Nc2cccc(Br)n2)c2ccc(S(C)(=O)=NC(=O)OC(C)(C)C)cc12` (stereo partly drawn) [Compound 47, tert-butyl ((3-acetyl-1-(2-((2S,4R)-2-((6-bromopyridin-2-yl)carbamoyl)-4-fluoropyrrolidin-1-yl)-2-oxoethyl)-1H-indol-5-yl)(methyl)(oxo)-16-sulfaneylidene)-14-azanecarboxylate], with less than 1000 nM.
In the case of `CCOP(=O)(COc1cc2c(cc1-c1cnc(C)nc1)c(C(C)=O)cn2CC(=O)N1C[C@H](F)C[C@H]1C(=O)Nc1cccc(-c2ccccc2Cl)c1F)OCC` [Compound 8, diethyl (3-acetyl-1-(2-((2S,4R)-2-(2′-chloro-2-fluorobiphenyl-3-ylcarbamoyl)-4-fluoropyrrolidin-1-yl)-2-oxoethyl)-5-(2-methylpyrimidin-5-yl)-1H-indol-6-yloxy)methylphosphonate], under setting [2], the half-inhibitory concentration (IC50) is less than 1000 nM.
In turn, `CC(C)(C)OC(=O)N=S(C)(=O)c1cccc(-c2cccc(NC(=O)[C@@H]3C[C@@H](F)CN3C(=O)Cn3nc(C(N)=O)c4ccccc43)c2F)c1` (stereo partly drawn) [Compound 49, tert-butyl ((3′-((2S,4R)-1-(2-(3-carbamoyl-1H-indazol-1-yl)acetyl)-4-fluoropyrrolidine-2-carboxamido)-2′-fluoro-[1,1′-biphenyl]-3-yl)(methyl)(oxo)-16-sulfaneylidene)-14-azanecarboxylate] displayed a concentration for half-maximal inhibition (IC50) of 1000 to 10000 nM.
In the case of `CC(=O)c1cn(CC(=O)N2C[C@H](F)C[C@H]2C(=O)Nc2cccc(-c3ccccc3Cl)c2F)c2cc(OCP(=O)(O)O)c(-c3cnc(C)nc3)cc12` [Compound 9, (3-acetyl-1-(2-((2S,4R)-2-(2′-chloro-2-fluorobiphenyl-3-ylcarbamoyl)-4-fluoropyrrolidin-1-yl)-2-oxoethyl)-5-(2-methylpyrimidin-5-yl)-1H-indol-6-yloxy)methylphos-phonic acid], the IC50 under setting [2] is less than 1000 nM.
Take `CC(=O)c1nn(CC(=O)N2C[C@H](F)C[C@H]2C(=O)Nc2cccc(Br)n2)c2cc(OCCN(C)C)c(-c3cnc(C)nc3)cc12` [Compound 44, (2S,4R)-1-(2-(3-acetyl-6-(2-(dimethylamino)ethoxy)-5-(2-methylpyrimidin-5-yl)-1H-indazol-1-yl)acetyl)-N-(6-bromopyridin-2-yl)-4-fluoropyrrolidine-2-carboxamide]: the IC50 under setting [1] is less than 1000 nM.
As to `CC(=O)c1nn(CC(=O)N2C[C@H](F)C[C@H]2C(=O)Nc2cccc(Br)n2)c2cc(OCCO)c(-c3cnc(C)nc3)cc12` [Compound 41, (2S,4R)-1-(2-(3-acetyl-6-(2-hydroxyethoxy)-5-(2-methylpyrimidin-5-yl)-1H-indazol-1-yl)acetyl)-N-(6-bromopyridin-2-yl)-4-fluoropyrrolidine-2-carboxamide], the half-maximal inhibitory concentration (IC50) under setting [1] is less than 1000 nM.

Source of the values: patent publication US11001600B2, “Disubstituted compounds for treatment of medical disorders” (Achillion Pharmaceuticals, Inc., priority 2015, dated 2021).
